Measured values as given in patent US20250129104A1, “7H-PYRROLO[2,3-D]PYRIMIDINES AND PREPARATION AND USES THEREOF” (BioSplice Therapeutics, Inc., priority 2021, published 2025).

Assays:
[1] = system: Tau phosphorylation at Thr212 (pThr212); assay: tau phosphorylation assay: phosphoTau (Thr212) AlphaLISA in HEK293T cells transfected with DYRK1A and MAPT; format: cell-based; conditions: HEK-293T; HEK293T cells transfected with human DYRK1A and MAPT; 18-24 h compound treatment; read-out: pTau (Thr212) EC50
Description: Representative compounds were screened using the assay procedure for tau phosphorylation activity described below.
HEK293T cells (ATCC, CRL3216) cultured in DMEM (Thermo Fisher Scientific, 10566024) supplemented with 10% FBS (Corning, 35-011-CV) and Penicillin/Streptomycin (Thermo Fisher Scientific, 15140163) were seeded in a 75 cm^2 flask at 8.1×10^6 cells/flask. The HEK293T cells were then transiently transfected with 5 μg DYRK1A (NM_001396) human untagged clone (OriGene, SC314641) and 2.5 μg MAPT (441 a.a. Tau gene) (NM_005910) human untagged clone (OriGene, TP313312) using Lipofectamine 3000 (Thermo Fisher Scientific, L30000015) and incubated for 20-30 hours in a humidified incubator at 37° C. and 5% CO2. Post-incubation, HEK293T cells transfected with the DYRK1A and MAPT expression vectors were harvested and seeded in BioCoat poly-D lysine coated 96-well plates (Corning, 354461) at 3×10^4 cells/well.
The above synthesized compounds were screened using the cell assay procedure to assess decreased Tau phosphorylation at Thr212 (pThr212) described below.
Each compound was dissolved in DMSO (Sigma-Aldrich, D8418-100 mL) as a 10 mM stock. 10 mM stocks were serially diluted 1:3, 10-point dose-response curve and added to the cells with a final concentration ranging from 20 μM to 1.1 nM. Cell were treated with compounds in duplicate and incubated for 18-24 hours in a humidified incubator at 37° C. and 5% CO2.
Following the overnight compound treatment, cells were lysed with 1× Alpha Surefire Ultra Lysis Buffer (Perkin Elmer, ALSU-LB-100ML) complemented with 1× Halt Phosphatase Inhibitor Cocktail (Thermo Fisher Scientific, 78427) and 1× Halt Protease Inhibitor Cocktail (Thermo Fisher Scientific, 78438). Lysates were spun down at 12,000 g for 10 min to remove any cellular debris and 5 μL of lysates were dispensed into a 384-well Opti-Plate (Perkin Elmer, 6007290) for the measurement of Tau phosphorylation in the phosphoTau (Thr212) AlphaLISA assay. Donor antibody, biotinylated HT7Tau (Thermo Fisher Scientific, MN1000B), and acceptor antibody, pThr212Tau (Thermo Fisher Scientific, 44740G) were both added to the cell lysates at a final concentration of 3 nM and incubated for 1 hour at room temperature. Following incubation of the lysates with the donor and acceptor antibodies, anti-rabbit IgG (Fc specific) AlphaLISA acceptor beads (Perkin Elmer, AL104C) were added at a 10 μg/mL final concentration and incubated for 1 hour at room temperature protected from light. Lastly, AlphaScreen streptavidin donor beads (PerkinElmer, 6760002) were added at 40 μg/mL final concentration and incubated for 1 hour at room temperature protected from light. Plates were read at […], and Em=615 nm on the EnVision Multilabel Plate Reader (Perkin Elmer). PhosphoTau (Thr212) AlphaLISA signal was used to plot, draw the curve fitting, and determine each compound's EC50 in Prism (GraphPad).

[2] = target: recombinant DYRK1A kinase (Homo sapiens (Human), UniProt Q13627); assay: DYRK1A kinase assay (Ser/Thr 18 peptide Z-lyte FRET assay); format: biochemical; conditions: DYRK1A kinase activity; 15 μM ATP, 1 h room temperature; method text calls the value IC50
Procedure, shortened: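 Recombinant human DYRK1A (0.25 μg/mL) with 15 μM ATP and 4 μM Ser/Thr 18 peptide, 1 h at room temperature with compound (11-point, 1:3, 10 μM top, duplicate). Z-lyte development 1 h, then coumarin/fluorescein FRET emission ratio converted to % phosphorylation; IC50 by non-linear regression.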

Row | SMILES | EC50 [1] [nM] | EC50 [2] [nM]
1 | C[C@H](Nc1ncc2c(-c3ccc4nccn4n3)c[nH]c2n1)C(F)(F)F [Compound 913, (S)-5-(Imidazo[1,2-b]pyridazin-6-yl)-N-(1,1,1-trifluoropropan-2-yl)-7H-pyrrolo[2,3-d]pyrimidin-2-amine] | 228 | 6.4
2 | CC(F)(F)CNc1ncc2c(-c3ccc4ncnn4c3)c[nH]c2n1 [Compound 732, 5-([1,2,4]Triazolo[1,5-a]pyridin-6-yl)-N-(2,2-difluoropropyl)-7H-pyrrolo [2,3-d]pyrimidin-2-amine] | 191 | 11.7
3 | C[C@@H](Nc1ncc2c(-c3ccc4ncnn4c3)c[nH]c2n1)C1CC1 [Compound 740, (R)-5-([1,2,4]Triazolo[1,5-a]pyridin-6-yl)-N-(1-cyclopropylethyl)-7H-pyrrolo [2,3-d]pyrimidin-2-amine] | 226 | 22
4 | CC(C)Cc1ncc2c(-c3cnc4nccn4c3)c[nH]c2n1 [Compound 448, 5-(Imidazo[1,2-a]pyrimidin-6-yl)-2-isobutyl-7H-pyrrolo[2,3-d]pyrimidine] | 245 | 9.3
5 | CC(C)Nc1ncc2c(-c3ccc4ncnn4c3)c[nH]c2n1 [Compound 726, 5-([1,2,4]Triazolo[1,5-a]pyridin-6-yl)-N-isopropyl-7H-pyrrolo[2,3-d]pyrimidin-2-amine] | 815 | 22.4
6 | COC[C@H](C)Nc1ncc2c(-c3ccc4ncc(F)n4c3)c[nH]c2n1 [Compound 161, (S)-5-(3-Fluoroimidazo[1,2-a]pyridin-6-yl)-N-(1-methoxypropan-2-yl)-7H-pyrrolo[2,3-d]pyrimidin-2-amine] | 361 | 26.5
7 | CC[C@H](C)Nc1ncc2c(-c3cc(F)c4ncc(C)n4c3)c[nH]c2n1 [Compound 285, (S)—N-(sec-Butyl)-5-(8-fluoro-3-methylimidazo[1,2-a]pyridin-6-yl)-7H-pyrrolo[2,3-d]pyrimidin-2-amine] | 241 | 12.7
8 | C[C@@H](Nc1ncc2c(-c3cnc4nccn4c3)c[nH]c2n1)C1CC1 [Compound 469, (R)—N-(1-cyclopropylethyl)-5-(imidazo[1,2-a]pyrimidin-6-yl)-7H-pyrrolo [2,3-d]pyrimidin-2-amine] | 246 | 7.6
9 | CN1CCC(NC(=O)c2cnn3ccc(-c4c[nH]c5nc(C6CCC6)ncc45)cc23)CC1 [Compound 1509, 5-(2-Cyclobutyl-7H-pyrrolo[2,3-d]pyrimidin-5-yl)-N-(1-methylpiperidin-4-yl)pyrazolo[1,5-a]pyridine-3-carboxamide] | 7020 | 39.9
10 | FC(F)CNc1ncc2c(-c3ccc4ncnn4c3)c[nH]c2n1 [Compound 730, 5-([1,2,4]Triazolo[1,5-a]pyridin-6-yl)-N-(2,2-difluoroethyl)-7H-pyrrolo[2,3-d]pyrimidin-2-amine] | 504 | 33.6
11 | FC1(CNc2ncc3c(-c4ccc5ncnn5c4)c[nH]c3n2)CC1 [Compound 739, 5-([1,2,4]Triazolo[1,5-a]pyridin-6-yl)-N-((1-fluorocyclopropyl)methyl)-7H-pyrrolo[2,3-d]pyrimidin-2-amine] | 265 | 32.6
12 | C[C@@H](NC(=O)c1cnn2ccc(-c3c[nH]c4nc(C5CC5)ncc34)cc12)C(F)(F)F [Compound 1335, (R)-5-(2-Cyclopropyl-7H-pyrrolo[2,3-d]pyrimidin-5-yl)-N-(1,1,1-trifluoropropan-2-yl)pyrazolo[1,5-a]pyridine-3-carboxamide] | 236 | 17.7

Compounds with a lower EC50 [1], results first:

Row | EC50 [1] [nM] | EC50 [2] [nM] | SMILES
13 | 124 | 5.2 | COC[C@H](C)Nc1ncc2c(-c3cc(F)c4nccn4c3)c[nH]c2n1 [Compound 205, (S)-5-(8-Fluoroimidazo[1,2-a]pyridin-6-yl)-N-(1-methoxypropan-2-yl)-7H-pyrrolo[2,3-d]pyrimidin-2-amine]
14 | 113 | 2.8 | CC(C)(F)CNc1ncc2c(-c3ccc4nccn4c3)c[nH]c2n1 [Compound 112, N-(2-Fluoro-2-methylpropyl)-5-(imidazo[1,2-a]pyridin-6-yl)-7H-pyrrolo[2,3-d]pyrimidin-2-amine]
15 | 56 | 6 | CO[C@H]1CC[C@@H](Nc2ncc3c(-c4ccn5nccc5n4)c[nH]c3n2)CC1 [Compound 1664, N-(cis-4-Methoxycyclohexyl)-5-(pyrazolo[1,5-a]pyrimidin-5-yl)-7H-pyrrolo[2,3-d]pyrimidin-2-amine]
16 | 6 | 5.6 | Cc1nc2ccc(-c3c[nH]c4nc(N[C@H](C)C(F)(F)F)ncc34)nc2n1CC(F)F [Compound 646, (R)-5-(3-(2,2-Difluoroethyl)-2-methyl-3H-imidazo[4,5-b]pyridin-5-yl)-N-(1,1,1-trifluoropropan-2-yl)-7H-pyrrolo[2,3-d]pyrimidin-2-amine]
17 | 10 | 5.3 | CO[C@H]1CC[C@@H](Nc2ncc3c(-c4ccc5nccnc5c4)c[nH]c3n2)CC1 [Compound 1929, N-(cis-4-Methoxycyclohexyl)-5-(quinoxalin-6-yl)-7H-pyrrolo[2,3-d]pyrimidin-2-amine]
18 | 54 | 2.3 | CC(C)(F)CNC(=O)c1cnn2ccc(-c3c[nH]c4nc(C5CC5)ncc34)cc12 [Compound 1292, 5-(2-Cyclopropyl-7H-pyrrolo[2,3-d]pyrimidin-5-yl)-N-(2-fluoro-2-methylpropyl)pyrazolo[1,5-a]pyridine-3-carboxamide]
19 | 25 | 9.8 | CO[C@H]1CC[C@@H](Nc2ncc3c(-c4ccc5nnn(C)c5c4)c[nH]c3n2)CC1 [Compound 838, N-(cis-4-Methoxycyclohexyl)-5-(1-methyl-1H-benzo[d][1,2,3]triazol-6-yl)-7H-pyrrolo[2,3-d]pyrimidin-2-amine]
20 | 111 | 3.7 | FC1(F)CCC(Nc2ncc3c(-c4ccc5nccnc5c4)c[nH]c3n2)CC1 [Compound 1928, N-(4,4-Difluorocyclohexyl)-5-(quinoxalin-6-yl)-7H-pyrrolo[2,3-d]pyrimidin-2-amine]
21 | 37 | 7.2 | Cc1nc2c(F)cc(-c3c[nH]c4nc(NCC(C)(C)C)ncc34)cc2n1C(C)C [Compound 507, 5-(4-Fluoro-1-isopropyl-2-methyl-1H-benzo[d]imidazol-6-yl)-N-neopentyl-7H-pyrrolo[2,3-d]pyrimidin-2-amine]
22 | 141 | 19.9 | FC(F)(F)C1(CNc2ncc3c(-c4ccn5nccc5n4)c[nH]c3n2)CC1 [Compound 1659, 5-(Pyrazolo[1,5-a]pyrimidin-5-yl)-N-((1-(trifluoromethyl)cyclopropyl)methyl)-7H-pyrrolo[2,3-d]pyrimidin-2-amine]
23 | 20 | 3.2 | FC1(F)CCC(Nc2ncc3c(-c4ccc5nccn5n4)c[nH]c3n2)CC1 [Compound 924, N-(4,4-Difluorocyclohexyl)-5-(imidazo[1,2-b]pyridazin-6-yl)-7H-pyrrolo [2,3-d]pyrimidin-2-amine]
24 | 70 | 6.1 | FC(F)(F)C1(CNc2ncc3c(-c4ccc5nccn5n4)c[nH]c3n2)CC1 [Compound 920, 5-(Imidazo[1,2-b]pyridazin-6-yl)-N-((1-(trifluoromethyl)cyclopropyl)methyl)-7H-pyrrolo[2,3-d]pyrimidin-2-amine]
25 | 57 | 1.5 | CC(C)(F)CNc1ncc2c(-c3cnc4nccn4c3)c[nH]c2n1 [Compound 460, N-(2-Fluoro-2-methylpropyl)-5-(imidazo[1,2-a]pyrimidin-6-yl)-7H-pyrrolo [2,3-d]pyrimidin-2-amine]
